Measured values published in US20260184704A1, “NLRP3 INFLAMMASOME INHIBITORS AND USES THEREOF” (Insilico Medicine IP Limited, priority 2023, published 2026).

How the values were obtained:
[1] = test system: THP-1 cells, IL-1β release; assay: IL-1β Release THP-1 Assay (Example B-3); assay type: cell-based; conditions: Homo sapiens; PMA-differentiated THP-1 cells, LPS then Nigericin, IL-1β by Elisa; read-out: Potency, THP-1 IL-1β, IC50 (nM), Example B-3
Experimental: Example B-3: IL-1β Release THP-1 Assay
THP-1 cells Culture RPMI1640 medium, 10% FBS, 1% PS, 55 uM β-Mer at 37° C. & 5% CO2 incubator.
IL-1β Release Detection • 1) Seed THP-1 in complete RPMI 1640 medium containing PMA into 96 well plate coated with poly-L-lysin incubate for 24 hours. • 2) Remove medium, wash the differentiated THP-1 cells with PBS, add FBS free RPMI 1640 medium. • 3) Add LPS and incubate for 3 hours at 37° C. & 5% CO2 incubator. • 4) Add compounds and incubate for 30 minutes at 37° C. & 5% CO2 incubator. • 5) Add Nigericin and incubate for 1 hour at 37° C. & 5% CO2 incubator. • 6) Collect supernatant to test IL-1β by Elisa.
• a) Assay robustness check with DMSO and Low control data:
[formula] • X: cpd concentration • Y: change % • Top and Bottom: Plateaus in same units as Y • logIC50: same log units as X • HillSlope: Slope factor or Hill slope

[2] = target: T1, NLRP3 (Homo sapiens, UniProt Q96P20); assay: NLRP3 Enzymatic Activity ADP-Glo Assay (Example B-4); assay type: biochemical; conditions: hydrolysis of ATP by NLRP3; NLRP3 15 nM, ATP 1 μM; read-out: NLRP3_ADP-Glo_IC50 (nM), Example B-4
T1 construct: purchased ICE YM2306T-H06MHS
Experimental: Example B-4: NLRP3 Enzymatic Activity ADP-Glo Assay
NLRP3 activity test experiment, measuring the hydrolysis of NLRP3 on the substrate ATP using the ADP-Glo assay. First, after adding an inhibitor containing 0.5% DMSO with Echo, add 5 μL of NLRP3 (ICE, YM2306T-H06MHS) enzyme solution to each well, centrifuge at 1000 rpm for 1 min at room temperature and react for 10 min. Then add 5 μL of ATP (Promega, V915A) substrate solution to each well for 90 min at room temperature; NLRP3 and ATP were prepared in 50 mM HEPES, 10 mM MgCl2, 0.01% Brij-35, 1 mM EGTA, and 2 mM DTT buffers at final concentrations of 15 nM and 1 μM, respectively. Subsequently, 10 μL ADP-Glo reagent solution (Promega, V9102) was added into each assay well, centrifuged at 1000 rpm for 1 min, and then incubated at room temperature for 45 min. Finally, 20 μL ADP-Glo detection solution (Promega, V9102) is added to each well, centrifuged at 1000 rpm for 1 min and reacted for 45 min at room temperature. The luminescence signal values were read using a BMG instrument and the IC50 values were determined by fitting the data to an S-shaped dose-response curve using nonlinear regression.

T1 sequence (Q96P20 whole entry): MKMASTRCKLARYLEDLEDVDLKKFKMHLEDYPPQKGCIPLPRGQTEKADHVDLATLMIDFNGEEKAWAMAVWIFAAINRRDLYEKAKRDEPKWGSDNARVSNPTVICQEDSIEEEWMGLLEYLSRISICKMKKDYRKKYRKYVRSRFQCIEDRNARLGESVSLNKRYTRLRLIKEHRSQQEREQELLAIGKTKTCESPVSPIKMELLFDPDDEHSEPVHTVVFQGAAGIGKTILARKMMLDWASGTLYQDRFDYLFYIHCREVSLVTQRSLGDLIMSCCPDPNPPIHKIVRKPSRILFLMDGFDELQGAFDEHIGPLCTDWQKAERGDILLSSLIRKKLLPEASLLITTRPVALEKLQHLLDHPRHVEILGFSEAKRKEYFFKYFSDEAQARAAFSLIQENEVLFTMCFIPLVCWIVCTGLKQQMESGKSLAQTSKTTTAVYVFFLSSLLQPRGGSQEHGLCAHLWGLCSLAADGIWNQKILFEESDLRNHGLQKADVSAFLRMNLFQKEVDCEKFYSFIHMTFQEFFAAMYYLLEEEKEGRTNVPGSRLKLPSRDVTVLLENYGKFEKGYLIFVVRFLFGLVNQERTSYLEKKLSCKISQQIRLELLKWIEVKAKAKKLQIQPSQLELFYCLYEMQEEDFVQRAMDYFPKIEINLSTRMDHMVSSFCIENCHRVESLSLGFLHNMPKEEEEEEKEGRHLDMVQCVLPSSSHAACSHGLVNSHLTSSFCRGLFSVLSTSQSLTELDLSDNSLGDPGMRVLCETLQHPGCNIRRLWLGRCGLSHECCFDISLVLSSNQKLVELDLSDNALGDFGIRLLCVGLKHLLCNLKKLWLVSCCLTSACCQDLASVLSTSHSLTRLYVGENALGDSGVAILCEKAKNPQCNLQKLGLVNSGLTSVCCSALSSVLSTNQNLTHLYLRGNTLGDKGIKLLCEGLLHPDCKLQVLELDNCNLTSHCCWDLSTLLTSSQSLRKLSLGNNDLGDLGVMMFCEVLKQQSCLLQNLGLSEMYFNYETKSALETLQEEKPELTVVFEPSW

SMILES | IC50 [1] | IC50 [2]
Cc1cc(C(F)(F)F)cc(O)c1C1=NN=C(N[C@@H]2C[C@H](O)CN(C)C2)SC1 (single isomer, unassigned) [Compound 16] | 10 to 100 nM | –
Cc1cc(C(F)(F)F)cc(O)c1C1=NN=C(N2CCC[C@@H]2[C@@H](C)O)SC1 (single isomer, unassigned) [Compound 33] | – | > 1000 nM
Cc1cc(C(F)(F)F)cc(O)c1C1=NN=C(N[C@@H]2CCCN(C)C2)SC1 [Compound 1] | < 10 nM | 10 to 100 nM
Cc1cc(C(F)(F)F)cc(O)c1C1=NN=C(N[C@@H]2CCCNC2)SC1 [Compound 2] | < 10 nM | –
CCN1CCC[C@@H](NC2=NN=C(c3c(C)cc(C(F)(F)F)cc3O)CS2)C1 [Compound 3] | < 10 nM | –
CC1SC(N[C@@H]2CCCN(C)C2)=NN=C1c1ccc(C(F)(F)F)cc1O (stereo partly shown) [Compound 5] | 100 to 1000 nM | –
Cc1cc(C(F)(F)F)cc(O)c1C1=NN=C(N[C@@H]2CCCN(CCO)C2)SC1 [Compound 6] | < 10 nM | –
Cc1cc(C(F)(F)F)cc(O)c1C1=NN=C(N[C@H]2CN3CCC2CC3)SC1 [Compound 20] | 10 to 100 nM | –
Cc1cc(OC(F)F)cc(O)c1C1=NN=C(N[C@@H]2CCCN(C)C2)SC1 [Compound 21] | 10 to 100 nM | –
COc1cc(C)c(C2=NN=C(N[C@@H]3CCCN(C)C3)SC2)c(O)c1 [Compound 23] | < 10 nM | 10 to 100 nM
Cc1cc(C(F)(F)F)cc(O)c1C1=NN=C(N[C@H]2C[C@@H](O)C2)SC1 [Compound 24] | 100 to 1000 nM | –
Cc1cc(OC(F)F)cc(O)c1C1=NN=C(N[C@H]2C[C@@](C)(O)C2)SC1 [Compound 25] | 10 to 100 nM | 10 to 100 nM
Cc1cc(C(F)(F)F)cc(O)c1C1=NN=C(NC[C@@H](C)O)SC1 [Compound 26] | 100 to 1000 nM | –
Cc1cc(C(F)(F)F)cc(O)c1C1=NN=C(N2CCC3CCN(C)CC32)SC1 (stereo not shown) [Compound 35] | 10 to 100 nM | 10 to 100 nM
Cc1cc(C#N)cc(O)c1C1=NN=C(N[C@@H]2CCCN(C)C2)SC1 [Compound 37] | 10 to 100 nM | 10 to 100 nM
Cc1cc(C#N)cc(O)c1C1=NN=C(N2CCC3CCN(C)CC32)SC1 (stereo not shown) [Compound 39] | – | 100 to 1000 nM
Cc1cc(C(F)(F)F)cc(OC(F)F)c1C1=NN=C(N[C@H]2C[C@@](C)(O)C2)SC1 [Compound 42] | – | > 1000 nM
Cc1cc(C(F)(F)F)cc(O)c1C1=NN=C(NCCC(N)=O)SC1 [Compound 43] | – | > 1000 nM
Cc1cc2sccc2c(O)c1C1=NN=C(N[C@@H]2CCCN(CCO)C2)SC1 [Compound 47] | < 10 nM | < 10 nM

SMILES | IC50 [1] | IC50 [2]
Cc1cc2c(c(O)c1C1=NN=C(N[C@H]3C[C@@](C)(O)C3)SC1)CCC2 [Compound 50] | 10 to 100 nM | 10 to 100 nM
Cc1cc(C(F)(F)F)cc(O)c1C1=NN=C(N[C@@H]2CCCN(C)C2)OC1 [Compound 52] | – | > 1000 nM
CCN1CCC[C@@H](NC2=NN=C(c3c(C)cc4c(c3O)CCO4)CS2)C1 [Compound 54] | – | < 10 nM
CC#Cc1cc(C)c(C2=NN=C(N[C@@H]3CCCN(C)C3)SC2)c(O)c1 [Compound 56] | – | 100 to 1000 nM
Cc1c(F)c2c(c(O)c1C1=NN=C(N[C@@H]3CCCN(C)C3)SC1)CCO2 [Compound 57] | 10 to 100 nM | 10 to 100 nM
C[C@]1(O)C[C@@H](NC2=NN=C(c3c(C(F)(F)F)cc4c(c3O)CCO4)CS2)C1 [Compound 58] | 10 to 100 nM | 10 to 100 nM
C[C@]1(O)C[C@@H](NC2=NN=C(c3c(Cl)cc4c(c3O)CCO4)CS2)C1 [Compound 60] | 10 to 100 nM | 10 to 100 nM
Cc1c(F)c2c(c(O)c1C1=NN=C(N[C@H]3C[C@@](C)(O)C3)SC1)CCO2 [Compound 61] | – | 10 to 100 nM
Cc1cc2c(c(O)c1C1=NN=C(N[C@H]3C[C@@](C)(O)C3)SC1)COC2 [Compound 62] | – | 100 to 1000 nM
C[C@]1(O)C[C@@H](NC2=NN=C(c3c(C(F)F)cc4c(c3O)CCO4)CS2)C1 [Compound 66] | 10 to 100 nM | 10 to 100 nM
Cc1cc2c(c(O)c1C1=NN=C(N[C@H]3C[C@@](C)(N)C3)SC1)CC2 [Compound 68] | 10 to 100 nM | 10 to 100 nM
Cc1cc2c(c(O)c1C1=NN=C(N[C@]34CC[C@](O)(C3)C4)SC1)CCO2 [Compound 70] | – | 100 to 1000 nM
[2H]C([2H])([2H])c1cc2c(c(O)c1C1=NN=C(N[C@H]3C[C@@](C)(O)C3)SC1)CCO2 [Compound 71] | – | 10 to 100 nM
Cc1cc2occc2c(O)c1C1=NN=C(N[C@H]2C[C@@](C)(O)C2)SC1 [Compound 72] | – | < 10 nM
Cc1cc(C(F)(F)F)cc(O)c1C1=NN=C(N[C@H]2C[C@@](C)(O)C2)CS1 [Compound 201] | 10 to 100 nM | 10 to 100 nM
Cc1cc(C(F)(F)F)cc(O)c1C1=NN=C(N[C@H]2C[C@@](C)(O)C2)C(C)(C)S1 [Compound 202] | 10 to 100 nM | 10 to 100 nM
Cc1cc2c(c(O)c1C1=NN=C(N[C@H]3C[C@@](C)(O)C3)CS1)CCO2 [Compound 203] | 10 to 100 nM | 10 to 100 nM
Cc1cc(Cl)cc(O)c1C1=NN=C(N[C@H]2C[C@@](C)(O)C2)CS1 [Compound 204] | < 10 nM | 10 to 100 nM
Cc1cc(Cl)cc(O)c1C1=NN=C(N[C@H]2C[C@](C)(N)C2)CS1 [Compound 207] | – | 100 to 1000 nM

Continued, values first:

IC50 [1] | IC50 [2] | SMILES
– | > 1000 nM | Cc1cc(C(F)(F)F)cc(O)c1C1=NN=C(N2CCC[C@@H]2[C@H](C)O)SC1 (single isomer, unassigned) [Compound 34]
10 to 100 nM | – | Cc1cc(C(F)(F)F)cc(O)c1C1=NN=C(N[C@@H]2CCC[C@H](O)C2)SC1 [Compound 7]
10 to 100 nM | – | Cc1cc(C(F)(F)F)cc(O)c1C1=NN=C(N[C@@H]2C[C@H](F)CN(C)C2)SC1 [Compound 9]
10 to 100 nM | – | Cc1cc(C(F)(F)F)cc(O)c1C1=NN=C(N[C@@H]2CCN(C)C2)SC1 [Compound 11]
10 to 100 nM | – | Cc1cc(C(F)(F)F)cc(O)c1C1=NN=C(N[C@@H]2CCCN(C3COC3)C2)SC1 [Compound 17]
100 to 1000 nM | – | Cc1cc(C(F)(F)F)cc(O)c1C1=NN=C(Nc2cc[nH]n2)SC1 [Compound 22]
10 to 100 nM | – | Cc1cc(C(F)(F)F)cc(O)c1C1=NN=C(N[C@H]2C[C@](O)(C(F)(F)F)C2)SC1 [Compound 29]
10 to 100 nM | 10 to 100 nM | Cc1cc(Cl)cc(O)c1C1=NN=C(N[C@H]2C[C@@](C)(O)C2)SC1 [Compound 30]
– | > 1000 nM | CNC(=O)CNC1=NN=C(c2c(C)cc(C(F)(F)F)cc2O)CS1 [Compound 32]
100 to 1000 nM | 100 to 1000 nM | Cc1cc(C(F)(F)F)cc(O)c1C1=NN=C(N[C@@H]2CCCN(C)C2)N(C)C1 [Compound 36]
10 to 100 nM | 10 to 100 nM | Cc1cc2c(c(O)c1C1=NN=C(N[C@@H]3CCCN(CCO)C3)SC1)CCO2 [Compound 40]
– | 100 to 1000 nM | C[C@]1(O)C[C@@H](NC2=NN=C(c3c(O)cc(C(F)(F)F)cc3F)CS2)C1 [Compound 41]
10 to 100 nM | 10 to 100 nM | C[C@]1(O)C[C@@H](NC2=NN=C(c3c(O)cc(C(F)(F)F)cc3Cl)CS2)C1 [Compound 45]
< 10 nM | < 10 nM | CCN1CCC[C@@H](NC2=NN=C(c3c(C)cc4sccc4c3O)CS2)C1 [Compound 46]
100 to 1000 nM | 10 to 100 nM | Cc1cc(C(F)(F)F)c(F)c(O)c1C1=NN=C(N[C@H]2C[C@@](C)(O)C2)SC1 [Compound 48]
– | > 1000 nM | Cc1cc2c(cc1C1=NN=C(N[C@@H]3CCCN(C)C3)SC1)CCO2 [Compound 49]
< 10 nM | 10 to 100 nM | Cc1cc2c(c(O)c1C1=NN=C(N3CCC4CCN(C)CC43)SC1)CCO2 (stereo not shown) [Compound 51]
– | 100 to 1000 nM | Cc1cc2c(c(O)c1C1=NN=C(N(C)[C@@H]3CCCN(C)C3)SC1)CCO2 [Compound 55]
– | 100 to 1000 nM | Cc1cc2c(c(O)c1C1=NN=C(NC34CCC(O)(CC3)C4)SC1)CCO2 [Compound 63]
– | 10 to 100 nM | Cc1cc2c(c(O)c1C1=NN=C(N[C@H]3C[C@@](C)(O)C3)SC1)OCC2 [Compound 64]
– | 100 to 1000 nM | Cc1cc2c(c(O)c1C1=NN=C(N[C@H]3C[C@](C)(O)C3)SC1)CCO2 [Compound 65]
10 to 100 nM | 10 to 100 nM | Cc1cc2c(c(O)c1C1=NN=C(N[C@H]3C[C@](C)(O)C3)SC1)CC2 [Compound 67]
– | 100 to 1000 nM | Cc1cc2c(c(O)c1C1=NN=C(N[C@H]3C[C@](C)(N)C3)SC1)CC2 [Compound 69]
